Where two headings read alike, the source gives them in different places.
Legend:
[1] = tested on: T lymphocytes (normal mouse spleen cells) stimulated with ConA; assay: Mouse Spleen Cell ConA Blastogenesis Assay; type: cell-based, mouse (C57Bl/6); details: Mus musculus, T-lymphocyte; for inhibition at 0.1 µg/mL: compound 0.1 ug/ml; for inhibition at 1 µg/mL: compound 1 ug/ml; for inhibition at 2.5 µg/mL: compound 2.5 ug/ml; for inhibition at 10 µg/mL: compound 10 ug/ml; for inhibition at 25 µg/mL: compound 25 ug/ml; for inhibition at 100 µg/mL: compound 100 ug/ml
[2] = tested on: T cell proliferation in mouse spleen cell mixed lymphocyte cultures; assay: Mixed Lymphocyte Reaction (MLR) assay; type: cell-based, mouse (Balb/c responder, C57B1/6 stimulator)
Outline: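 Balb/c responder spleen cells (2.5×10^5) co-cultured with mitomycin C-treated C57Bl/6 stimulators (5×10^5) for 5 days at 37 C with compound dilutions of 3–300 uM or DMSO. Proliferation read by MTT (OD 570-650 nm). Allogeneic minus syngeneic means were expressed as % change from vehicle control.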

[3] = ConA 1 ug/ml, read-out: % change from control, ConA blastogenic response
[4] = ConA 4 ug/ml, read-out: % change from control, ConA blastogenic response

SMILES: CCCCC/C=C/COC[C@H]1O[C@@]2(OC)COC(C)(C)O[C@H]2[C@@H]1OC/C=C/CCCCC [Ie, methyl 1,3-O-isopropylidene-4,6-di-O-(trans,2-octenyl)-α-D-fructofuranoside]
- inhibition at 0.01 µg/mL ([1]; ConA 1 ug/ml, 0.01 ug/ml, read-out: % Change from Control (Table II)): 2%
- inhibition at 0.01 µg/mL ([1]; ConA 1 ug/ml, compound 0.01 ug/ml, read-out: % change from control, ConA blastogenic response): 22%
- inhibition at 0.1 µg/mL [1, 3]: 18%
- inhibition at 1 µg/mL [1, 3]: 34%
- inhibition at 2.5 µg/mL [1, 3]: 72%
- inhibition at 10 µg/mL [1, 3]: 91%
- inhibition at 25 µg/mL [1, 3]: 99%
- inhibition at 100 µg/mL [1, 3]: 100%
- inhibition at 0.01 µg/mL ([1]; ConA 4 ug/ml, 0.01 ug/ml, read-out: % Change from Control (Table II)): 8%
- inhibition at 0.01 µg/mL ([1]; ConA 4 ug/ml, compound 0.01 ug/ml, read-out: % change from control, ConA blastogenic response): 4%
- inhibition at 0.1 µg/mL [1, 4]: 9%
- inhibition at 1 µg/mL [1, 4]: 59%
- inhibition at 2.5 µg/mL [1, 4]: 79%
- inhibition at 10 µg/mL [1, 4]: 92%
- inhibition at 25 µg/mL [1, 4]: 99%
- inhibition at 100 µg/mL [1, 4]: 100%
- Mean O.D. Allogenic ([2]; 3 um): 0.341 O.D.
- Mean O.D. Syngeneic ([2]; 3 um): 0.133 O.D.
- Mean O.D. Allogenic ([2]; 10 um): 0.318 O.D.
- Mean O.D. Syngeneic ([2]; 10 um): 0.130 O.D.
- Mean O.D. Allogenic ([2]; 30 um): 0.266 O.D.
- Mean O.D. Syngeneic ([2]; 30 um): 0.178 O.D.
- Mean O.D. Allogenic ([2]; 100 um): 0.216 O.D.
- Mean O.D. Syngeneic ([2]; 100 um): 0.146 O.D.
- Mean O.D. Allogenic ([2]; 300 um): 0.152 O.D.
- Mean O.D. Syngeneic ([2]; 300 um): 0.082 O.D.
- inhibition at 3 µM ([2]; Mus musculus, Lymphocyte, 3 um, read-out: % Change From Control, MLR): -8%
- inhibition at 10 µM ([2]; Mus musculus, Lymphocyte, 10 um, read-out: % Change From Control, MLR): 2%
- inhibition at 30 µM ([2]; Mus musculus, Lymphocyte, 30 um, read-out: % Change From Control, MLR): 54%
- inhibition at 100 µM ([2]; Mus musculus, Lymphocyte, 100 um, read-out: % Change From Control, MLR): 64%
- inhibition at 300 µM ([2]; Mus musculus, Lymphocyte, 300 um, read-out: % Change From Control, MLR): 64%

Reference: patent US5298494A, “Monosaccharides having anti-proliferation and anti-inflammatory activity, compositions and uses thereof” (Greenwich Pharmaceuticals Incorporated, priority 1993, dated 1994)
